Measured values published in US4657924A, “Nafazatrom as a lipoxygenase inhibitor” (priority 1983, dated 1987).

What was measured:
[1] = tested on: synthesis of various prostaglandins in RSVM and BAM; assay: Prostaglandin synthesis in microsomes of sheep seminal vesicles (RSVM) and cattle aortas (BAM); format: biochemical
Procedure: The specific PGI2 -stimulating action of nafazatrom was shown in vitro in a mixture of microsomes from the seminal vesicles of sheep (RSVM) and the aortas of cattle (BAM) (compare F. Cottee et al., Protaglandins, 14, 413, 1977). ^3 H-arachidonic acid was incubated with a mixture of RSVM and BAM in the presence of 3.10^-5 g/ml of nafazatrom at 25° C. for 10 minutes. The reaction was stopped by acidification to pH 3.5. The fatty acid metabolites were extracted with ethyl acetate. The ethyl acetate was evaporated off under N2, the residue was taken up in CH3 OH/CHCl3 (1:1) and the mixture was discharged on thin layer chromatography plastic sheets. Separation was effected with a mobile phase mixture of ethyl acetate/glacial acetic acid/isooctane/H2 O (110:20:50:10; organic phase) (P. Needleman et al., The Journal of Clinical Investigation 1978, 61, 839-849). The distribution of the radioactivity was measured by means of a radio scanner.

5-lipoxygenase = 5-lipoxygenase inhibition; format: biochemical; conditions: selectively, versus 15- and 12-lipoxygenase
[2] = tested on: disorders in cardiac rhythm following coronary ligature; assay: Coronary artery ligation in rats: disorders in cardiac rhythm; format: in vivo, rat (Wistar); conditions: for Duration of VF (seconds), early / Duration of VT (seconds), early / Extrasystoles %, early: 0-10 minutes; for Duration of VF (seconds), late / Duration of VT (seconds), late / Extrasystoles %, late: 2-4 hours
Description: (§1) Ligation of the left coronary artery of the rat heart and the disorders in cardiac rhythm which thereby occur form a relatively simple model for investigating substances having antiarrhythmic actions and effects on the developing myocardial ischaemia (Clark et al., J. Pharmacol. Meth. 3, 357, 1980). The effects of nafazatrom on antiarrhythmic and antiischaemic properties in conscious rats was investigated in this model. Particular importance was placed on the severity and quantity of disorders in cardiac rhythm which occurred.
(§2) Male Wistar rats (250-350 g) were superficially anaesthetized with ether and investigated for rhythm disorders. Animals with rhythm abnormalities before the start of the experiment were excluded. In acute surgery, the animals were again anaesthetized with ether. In the lateral dorsal position, the thorax was opened somewhat to the left alongside the central line and the heart was exteriorized. Close below the left heart auricle, a silk ligature (3-0) was looped through the muscle of the left heart under the anterior coronary artery. Animals which developed rhythm disorders during this procedure were excluded. The left coronary artery was ligatured by the method described by Selye et al. (Angiology 11, 398, 1960), the heart was returned to the thorax and the wound was rapidly closed with thread. Since the thorax had not been opened for longer than about 45 seconds, artificial respiration of the animals was unnecessary. The operation mortality was between 25 and 40% within the first hours, and in particular myocardial haemorrhages, rhythm disorders with ventricular fibrillation, and massive cardiac infractions occurred. In a sham-operatedgroup, the same experimental conditions were investigated, with the exception that the coronary artery remained open. Shortly after the ligature had been made, early rhythm disorders were observed, which were accompanied in some cases (untreated) with ventricular fibrillations. In most cases, this ventricular fibrillation spontaneously turned into uniform sinus rhythm of heart contraction. The disorders in cardiac rhythm were evaluated by the plan described by Clark (see above). Ventricular tachycardia was defined as the result of more than 10 successive rhythm disorders with extrasystoles. Electrocardiographic changes included a rise in the ST segment, a drop in the Q waves and a rise in the QT interval. The total number of ectopic activity in each individual animal was determined by counting the ventricular extrasystoles, including tachycardia and fibrillations.
(§3) Three groups were investigated: group I received the diluent (1% strength aqueous Tylose suspension, that is to say methylhydroxyethyl-cellulose) twice daily perorally (0.5 ml/kg) for 10 days and by the same administration and in the same amount, after coronary ligature, for a further 20 days; group II was pretreated with the diluent for 10 days (0.5 ml/kg) and was treated with 30 or 100 mg/kg of nafazatrom (in each case suspended in 0.5 ml/kg of 1% strength Tylose suspension) twice daily perorally for 20 days, after coronary ligature (the first nafazatrom administration was effected immediately after the coronary ligature); group III received the above oral doses of nafazatrom in the course of 10 days before the ligature, and the diluent Tylose suspension for 10 days after the coronary occlusion had been effected. The sham-operated animals remained untreated. The peripheral ECG in the extremities was determined in lead II, and in particular, as a control before the start of treatment, shortly before and during coronary ligature, 10 minutes after coronary ligature had been effected, and--after renewed ether anaesthesia-- between the 2nd and 4th hour after coronary occlusion. Each time, the animals were superficially anaesthetized again with ether when the ECG was recorded. At the end of the treatment period, a last ECG was recorded shortly before the animals were sacrificed. […]

leucocytes = assay: Leucocyte stickiness in hamster cheek pouch venules; format: in vivo, Syrian golden hamster; conditions: intraarterial, 1.0 mg/kg
Procedure: The number of leucocytes counted will be greater, the lower the stickiness of the cells. Male Syrian golden hamsters (80-100 g) were anaesthetized with Nembutal (i.p.; 60 mg/kg). After insertion of a PE 10 catheter into the a.femoralis, the animal was laid on a Duling dissecting platform (MVR 5, 423 (1973)) and the right check pouch was withdrawn by inserting a Q-Tip. It was carefully drawn into the envisaged part of the platform, stretched and fixed. From the start of the dissection, 5 ml/minute of Superfusat flowed over the prepared cheek pouch. The temperature of the solution is 36° C. While treating the vessels with care, the upper layer tissue was separated longitudinally and folded back to the side. Under about 200-fold magnification, an area of about 1 cm^2 of connective tissue was carefully exposed. The animal was placed on the object stand of a microscope, together with the dissecting platform. A thermocouple was inserted into the left cheek pouch. The body temperature of the animal was thus monitored and kept at ±0.3° C. with the aid of an IR lamp (250 watt). The leucocyte stickiness was measured at about 500-fold magnification. A venule (30-40 μm .phi.) was selected in the exposed area. The number of leucocytes per unit time (minutes) which migrate past a certain section of this vessel was counted.

12-lipoxygenase = 12-lipoxygenase inhibition; format: biochemical; conditions: these concentrations (>10 μg/ml)
[3] = tested on: v.jugularis, a.carotis and a.femoralis; conditions: Seuter et al., 1979; cited from earlier work
[4] = tested on: cardiac infarction following ligation of the left coronary artery; assay: Coronary artery ligation in rats: cardiac infarction size and total mortality; format: in vivo, rat (Wistar); conditions: for Total mortality % / Infarction size, % of total heart: peroral; for reduction of infarction size: treatment after coronary ligature
Description: as §1, §2, §3

cyclooxygenase = assay: Cyclooxygenase inhibition; format: biochemical; conditions: on administration of nafazatrom
[5] = Antiasthmatic, inflammation-inhibiting and gastro-protective action; conditions: in words
[6] = 3.10^-5 g/ml, 25° C., 10 minutes
[7] = group II, after-treatment 30 mg/kg, 2 × daily, 15 animals
[8] = group II, after-treatment 30 mg/kg, 2 × daily, 9 animals
[9] = group II, after-treatment 100 mg/kg, 2 × daily, 18 animals
[10] = group III, pre-treatment 30 mg/kg, 10 days, 12 animals
[11] = group III, pre-treatment 30 mg/kg, 10 days, 10 animals
[12] = group III, pre-treatment 100 mg/kg, 10 days, 16 animals
[13] = group III, pre-treatment 100 mg/kg, 10 days, 11 animals

CC1=NN(CCOc2ccc3ccccc3c2)C(=O)C1 [nafazatrom, 3-methyl-1-[2-(2-naphthyloxy)-ethyl]-2-pyrazolin-5-one]
Increase in concentration (in %) in comparison with the control, 6-Keto-PGF1 α [1, 6]: 300-400%
Increase in concentration (in %) in comparison with the control, PGD2 [1, 6]: 0%
Increase in concentration (in %) in comparison with the control, PGE2 [1, 6]: 0%
Increase in concentration (in %) in comparison with the control, PGF2 α [1, 6]: 0%
synthesis of prostacyclin (PGI2) ([1]; in words): specifically stimulates
synthesis of the prostaglandins having a vasoconstricting action and of TXA2 ([1]; in words, see Example 2): not influenced
inhibition of 5-lipoxygenase (5-lipoxygenase): selectively inhibits
irregularities in comparison with the control animals ([2]; early (0-10 minutes) and late phase (2-4 hours)): significantly fewer irregularities
Duration of VF (seconds), early [2, 7]: 65 s
Duration of VT (seconds), early [2, 7]: 72 s
Extrasystoles %, early [2, 7]: 94%
Duration of VF (seconds), late [2, 8]: 0 s
Duration of VT (seconds), late [2, 8]: 4 s
Extrasystoles %, late [2, 8]: 6%
Duration of VF (seconds), early [2, 9]: 68 s
Duration of VT (seconds), early [2, 9]: 60 s
Extrasystoles %, early [2, 9]: 90%
Duration of VF (seconds), late [2, 9]: 0 s
Duration of VT (seconds), late [2, 9]: 0 s
Extrasystoles %, late [2, 9]: 0%
Duration of VF (seconds), early [2, 10]: 5 s
Duration of VT (seconds), early [2, 10]: 9 s
Extrasystoles %, early [2, 10]: 34%
Duration of VF (seconds), late [2, 11]: 11 s
Duration of VT (seconds), late [2, 11]: 10 s
Extrasystoles %, late [2, 11]: 25%
Duration of VF (seconds), early [2, 12]: 0 s
Duration of VT (seconds), early [2, 12]: 13 s
Extrasystoles %, early [2, 12]: 25%
Duration of VF (seconds), late [2, 13]: 6 s
Duration of VT (seconds), late [2, 13]: 10 s
Extrasystoles %, late [2, 13]: 4%
prevention of rhythm disorders ([2]; pre-treatment of 100 mg/kg): prevent almost all the rhythm disorders
duration of action (leucocytes): about 60 minutes
increase in the number of leucocytes (leucocytes): 60-100%
inhibition of 12-lipoxygenase (12-lipoxygenase): not inhibited
antithrombotic effectiveness [3]: effective arterially and venously
total mortality ([4]; after-treated with 30 mg/kg): 22%
total mortality ([4]; after-treated with 100 mg/kg): 12%
infarctions in comparison with the control animals treated only with Tylose ([4]; both groups (before or after coronary ligature)): significantly smaller
Total mortality % ([4]; group II, after-treatment 30 mg/kg, 2 × daily, 20 days): 24%
Infarction size, % of total heart ([4]; group II, after-treatment 30 mg/kg, 2 × daily, 20 days, 15 animals): 31.5%
Total mortality % ([4]; group II, after-treatment 100 mg/kg, 2 × daily, 20 days): 22%
Infarction size, % of total heart ([4]; group II, after-treatment 100 mg/kg, 2 × daily, 20 days, 18 animals): 26.7%
Total mortality % ([4]; group III, pre-treatment 30 mg/kg, 10 days): 22%
Infarction size, % of total heart [4, 10]: 28.0%
Total mortality % ([4]; group III, pre-treatment 100 mg/kg, 10 days): 12%
Infarction size, % of total heart [4, 12]: 22.7%
reduction of infarction ([4]; pre-treatment 30 mg/kg): 36%
reduction of infarction ([4]; pre-treatment 100 mg/kg): 48%
reduction of infarction size ([4]; 30 mg/kg): 28%
reduction of infarction size ([4]; 100 mg/kg): 39%
inhibition of cyclooxygenase (cyclooxygenase): No such inhibition of cyclooxygenase
antiasthmatic, inflammation-inhibiting and gastro-protective action [5]: marked antiasthmatic, inflammation-inhibiting and gastro-protective action
